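Step 1: Grow cells in 96-well plates. Step 2: Expose to compound for 48 hours at 5 concentrations. Step 3: Interpolate endpoints linearly; if unreached, use highest concentration. GI50 = concentration required for 50% inhibition of growth.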 Active and inactive are the calls of the source. Cut-off read from the data, not from the text of the source: active = GI50 up to about 1.1 µM and inactive = higher.
Experiments:
Assay in all cases: NCI anticancer screen, dose series, 48 h
[1] = tested on: A498
[2] = tested on: BT-549
[3] = tested on: COLO 205
[4] = tested on: HCC 2998
[5] = tested on: HCT-15
[6] = tested on: HT-29
[7] = tested on: K562
[8] = tested on: KM12
[9] = tested on: MDA-MB-231
[10] = tested on: MDA-N
[11] = tested on: MOLT-4
[12] = tested on: NCI-H23
[13] = tested on: NCI-H522
[14] = tested on: NCI/ADR-RES
[15] = tested on: OVCAR-3
[16] = tested on: RXF 393
[17] = tested on: SK-MEL-2
[18] = tested on: T47D
[19] = tested on: SW-620
[20] = tested on: HOP-92

Row | SMILES | GI50 [1] | GI50 [2] | GI50 [3] | GI50 [4] | GI50 [5] | GI50 [6] | GI50 [7] | GI50 [8] | GI50 [9] | GI50 [10] | GI50 [11] | GI50 [12] | GI50 [13] | GI50 [14] | GI50 [15] | GI50 [16] | GI50 [17] | GI50 [18] | GI50 [19] | GI50 [20]
1 | O=[N+]([O-])c1ccc2nc(O)c(/C=C(\O)c3ccccc3)nc2c1 | 12.5 µM (inactive) | 76.7 µM (inactive) | > 100 µM (inactive) | > 100 µM (inactive) | 11.5 µM | > 100 µM (inactive) | > 100 µM (inactive) | 4.81 µM (inactive) | 3.57 µM (inactive) | 93.5 µM (inactive) | > 100 µM (inactive) | 17.2 µM (inactive) | 12.5 µM (inactive) | 10 µM (inactive) | 27.9 µM (inactive) | 20.6 µM (inactive) | > 100 µM (inactive) | 61.7 µM (inactive) |  | 
2 | C=C(C)C(=O)N1c2ccc(OC)cc2CC1C(=O)OCC (stereo not given) | > 100 µM (inactive) | > 100 µM (inactive) | > 100 µM (inactive) | > 100 µM (inactive) | > 100 µM | > 100 µM (inactive) | > 100 µM (inactive) | > 100 µM (inactive) | > 100 µM (inactive) | > 100 µM (inactive) | > 100 µM (inactive) | > 100 µM (inactive) | > 100 µM (inactive) | > 100 µM (inactive) | > 100 µM (inactive) |  | > 100 µM (inactive) | 26.7 µM (inactive) | > 100 µM (inactive) | 
3 | COc1ccc(N2C(=O)CS(=O)(=O)C2c2cccc(Oc3ccccc3)c2)cc1 (stereo not given) |  | 7.74 µM (inactive) | 3.29 µM (inactive) |  | 3.33 µM | 3.68 µM (inactive) | 1.71 µM (inactive) | 4.4 µM (inactive) | 2.69 µM (inactive) | 1.22 µM (inactive) | 3.5 µM (inactive) | 4.99 µM (inactive) | 2.62 µM (inactive) | 2.89 µM (inactive) | 4.03 µM (inactive) | 4.04 µM (inactive) | 3.56 µM (inactive) | 7.45 µM (inactive) | 3.27 µM (inactive) | 7.52 µM (inactive)
4 | COc1ccc(C)cc1NC(=S)N/N=C/c1ccc(SC)cc1 | > 100 µM (inactive) | 49.3 µM (inactive) | 40.1 µM (inactive) |  | 39.6 µM | 34.1 µM (inactive) | 35.4 µM (inactive) | 67.5 µM (inactive) |  | 36.3 µM (inactive) | 45.4 µM (inactive) | 50.2 µM (inactive) | 82.2 µM (inactive) | 60.1 µM (inactive) | 38.9 µM (inactive) | 58.5 µM (inactive) | 55.6 µM (inactive) | 60.7 µM (inactive) | 53.8 µM (inactive) | 93.5 µM (inactive)
5 | O[C@@H]1C[C@H](Cl)c2c(Cl)sc(Cl)c21 |  | > 100 µM (inactive) | > 100 µM (inactive) | > 100 µM (inactive) | > 100 µM | > 100 µM (inactive) | > 100 µM (inactive) | > 100 µM (inactive) | > 100 µM (inactive) | > 100 µM (inactive) | > 100 µM (inactive) | > 100 µM (inactive) | > 100 µM (inactive) | > 100 µM (inactive) | > 100 µM (inactive) | > 100 µM (inactive) | > 100 µM (inactive) | 33.4 µM (inactive) | > 100 µM (inactive) | 
6 | S=C(S)NCC1CCC(CNC(=S)S)CC1 (stereo not given) | > 100 µM (inactive) | 44.1 µM (inactive) | 42 µM (inactive) | 20.4 µM (inactive) | 23.6 µM | 17.7 µM (inactive) | 14.2 µM (inactive) | 19.7 µM (inactive) | 29.2 µM (inactive) | 26.7 µM (inactive) | 29.2 µM (inactive) | 44.5 µM (inactive) | 12.7 µM (inactive) | 67.8 µM (inactive) | 16.5 µM (inactive) | 20 µM (inactive) | 23.3 µM (inactive) | 16.3 µM (inactive) | 47.5 µM (inactive) | 
7 | Cc1cccc2c1C(=O)[C@@](C)([C@]1(C)Nc3cccc(C)c3C1=O)N2 | > 100 µM (inactive) | > 100 µM (inactive) | > 100 µM (inactive) | > 100 µM (inactive) | > 100 µM | > 100 µM (inactive) | > 100 µM (inactive) | > 100 µM (inactive) | > 100 µM (inactive) | 98.4 µM (inactive) | > 100 µM (inactive) | > 100 µM (inactive) | > 100 µM (inactive) | > 100 µM (inactive) | > 100 µM (inactive) | > 100 µM (inactive) | > 100 µM (inactive) | > 100 µM (inactive) | > 100 µM (inactive) | 
8 | CCC/C(Cl)=N\OC(=O)Nc1cccc(C(F)(F)F)c1 | 17.8 µM (inactive) | 10.6 µM (inactive) | 3.05 µM (inactive) | 18.2 µM (inactive) | 13.5 µM | 21.8 µM (inactive) | 2.28 µM (inactive) | 17.6 µM (inactive) | 17 µM (inactive) | 17.6 µM (inactive) | 2.94 µM (inactive) | 20.7 µM (inactive) | 1.96 µM (inactive) | 20.6 µM (inactive) | 22.4 µM (inactive) | 19.6 µM (inactive) | 16.7 µM (inactive) | 23.9 µM (inactive) | 2.81 µM (inactive) | 
9 | Cn1ccnc1CC(C)(O)c1ccccc1 (stereo not given) | > 100 µM (inactive) | > 100 µM (inactive) | > 100 µM (inactive) | > 100 µM (inactive) | > 100 µM | > 100 µM (inactive) | > 100 µM (inactive) | > 100 µM (inactive) | > 100 µM (inactive) | > 100 µM (inactive) |  | > 100 µM (inactive) | > 100 µM (inactive) | > 100 µM (inactive) | > 100 µM (inactive) | > 100 µM (inactive) | > 100 µM (inactive) |  | > 100 µM (inactive) | > 100 µM (inactive)
10 | O=C1/C(=C/c2ccc(Br)s2)NC(=S)N1CN1CCOCC1 | 35.9 µM (inactive) | 34 µM (inactive) | 33 µM (inactive) | > 100 µM (inactive) | 30.2 µM | 35.2 µM (inactive) | 25.8 µM (inactive) | 84.3 µM (inactive) | 99.8 µM (inactive) | 52 µM (inactive) | 32.7 µM (inactive) | 36.3 µM (inactive) | 64 µM (inactive) | 64.9 µM (inactive) | 59.3 µM (inactive) | 21.3 µM (inactive) | 71.9 µM (inactive) | 49.5 µM (inactive) | 36.4 µM (inactive) | 
11 | CCCCn1c(CSc2ccc(Cl)cc2)c(C(=O)OCC)c2cc(OC)c(Br)cc21 | > 100 µM (inactive) | > 100 µM (inactive) | > 100 µM (inactive) | > 100 µM (inactive) | > 100 µM |  | > 100 µM (inactive) | > 100 µM (inactive) | > 100 µM (inactive) | > 100 µM (inactive) | > 100 µM (inactive) | > 100 µM (inactive) | > 100 µM (inactive) | > 100 µM (inactive) | > 100 µM (inactive) |  | > 100 µM (inactive) | > 100 µM (inactive) | > 100 µM (inactive) | 
12 | CNC(=O)c1nc[nH]c1/N=N/N(C)N | > 100 µM (inactive) | > 100 µM (inactive) | > 100 µM (inactive) | > 100 µM (inactive) | > 100 µM | > 100 µM (inactive) | > 100 µM (inactive) | 40.5 µM (inactive) | > 100 µM (inactive) | > 100 µM (inactive) | > 100 µM (inactive) | > 100 µM (inactive) | > 100 µM (inactive) | > 100 µM (inactive) | > 100 µM (inactive) | > 100 µM (inactive) | > 100 µM (inactive) | > 100 µM (inactive) | > 100 µM (inactive) | 
13 | CCC(CCN)(CCN)[N+](=O)[O-] |  | > 100 µM (inactive) | > 100 µM (inactive) |  | > 100 µM | > 100 µM (inactive) | > 100 µM (inactive) | > 100 µM (inactive) | > 100 µM (inactive) | > 100 µM (inactive) | > 100 µM (inactive) |  | 58.3 µM (inactive) | > 100 µM (inactive) |  | > 100 µM (inactive) | > 100 µM (inactive) | > 100 µM (inactive) | > 100 µM (inactive) | > 100 µM (inactive)
14 | C=CCN(c1cc(OCc2ccccc2)c2c(c(C)cn2S(=O)(=O)c2ccc([N+](=O)[O-])cc2)c1[N+](=O)[O-])S(C)(=O)=O |  | > 100 µM (inactive) | > 100 µM (inactive) | > 100 µM (inactive) | 31.6 µM | 8.77 µM (inactive) | 5.08 µM (inactive) | 4.86 µM (inactive) | > 89.5 µM (inactive) | 4.07 µM (inactive) | > 100 µM (inactive) | > 100 µM (inactive) | > 100 µM (inactive) | > 100 µM (inactive) | > 100 µM (inactive) | > 100 µM (inactive) | > 100 µM (inactive) | > 100 µM (inactive) |  | > 100 µM (inactive)
15 | O=C1C[C@@H](c2ccccc2)O[C@@H](c2ccccc2)C1 |  | > 100 µM (inactive) | 97.5 µM (inactive) | > 100 µM (inactive) | > 100 µM | > 100 µM (inactive) | > 100 µM (inactive) | > 100 µM (inactive) | > 100 µM (inactive) | 58.6 µM (inactive) | > 100 µM (inactive) | > 100 µM (inactive) |  | > 100 µM (inactive) | > 100 µM (inactive) | > 100 µM (inactive) | > 100 µM (inactive) | > 100 µM (inactive) | > 100 µM (inactive) | > 100 µM (inactive)
16 | COc1cccc(/C=C2\N=C(c3ccccc3)OC2=O)c1 |  | 40.6 µM (inactive) | 85.1 µM (inactive) | 49.7 µM (inactive) | 34 µM | > 100 µM (inactive) | 71.1 µM (inactive) | 73.5 µM (inactive) | > 100 µM (inactive) | 47.2 µM (inactive) |  | > 100 µM (inactive) | 12.3 µM (inactive) | 25.8 µM (inactive) | 63.1 µM (inactive) | > 100 µM (inactive) | 56.1 µM (inactive) | > 100 µM (inactive) | > 100 µM (inactive) | > 100 µM (inactive)
